This test deals with T1, récepteurs 5-HT3 (Rattus norvegicus, UniProt P35563).
T1 construct: induite par l'injection intraveineuse d'agonistes 5-HT3 chez le rat anesthésié à l'uréthane; from tissue; host or cells: whole animal: Sprague-Dawley rat, vagal afferents
T1 sequence (P35563 24-483): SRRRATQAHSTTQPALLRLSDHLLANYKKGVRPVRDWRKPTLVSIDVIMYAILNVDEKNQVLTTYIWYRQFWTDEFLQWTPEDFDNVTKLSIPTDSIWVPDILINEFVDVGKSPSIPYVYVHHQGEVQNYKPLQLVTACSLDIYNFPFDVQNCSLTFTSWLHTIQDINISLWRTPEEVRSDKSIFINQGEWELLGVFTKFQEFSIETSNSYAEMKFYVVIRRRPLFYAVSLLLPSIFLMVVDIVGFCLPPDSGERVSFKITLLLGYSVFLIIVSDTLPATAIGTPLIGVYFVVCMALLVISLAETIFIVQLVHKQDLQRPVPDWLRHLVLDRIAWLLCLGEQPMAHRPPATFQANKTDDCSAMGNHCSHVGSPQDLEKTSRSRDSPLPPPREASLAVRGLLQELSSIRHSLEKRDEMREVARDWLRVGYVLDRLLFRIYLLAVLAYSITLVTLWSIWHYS
Kind of test: Bezold-Jarisch bradycardic reflex in the urethane-anaesthetised rat. It is filed as in vivo. Conditions: for duration of the transient fall of rythme cardiaque: 30 µg i.v.; for prevention of the agonist-induced fall of rythme cardiaque: prior i.v. administration, dose 1 µg/kg. The text has this: La bradycardie (réflexe de BEZOLD-JARISCH) est induite par l'injection intraveineuse d'agonistes 5-HT3 chez le rat anesthésié à l'uréthane. Cette réponse consiste en une bradycardie brutale mais transitoire induite par la stimulation des récepteurs 5-HT3 sur les afférences vagales. Ce modèle est donc tout à fait approprié pour révéler d'éventuels effet agonistes ou antagonistes de composés qui sont des ligands potentiels des récepteurs 5-HT3.
L'animal (rat mâle, adulte - souche Sprague-Dawley, 250-300 g) est tout d'abord anesthésié à l'uréthane (1,4 g/kg i.p.) puis trachéotomisé pour la mise en place d'une canule trachéale. Un cathéter (0,3 mm) est introduit dans l'aorte abdominale via l'artère fémorale pour l'enregistrement en continu de la pression artérielle et du rythme cardiaque. Les agents pharmacologiques sont injectés dans la veine saphène qui a été canulée à cet effet.

With `Cc1[nH]c2ccc(O)cc2c1CCN` [2-méthyl-5-tryptamine, 2-méthyl-5 hydroxytryptamine], the “duration of the transient fall of rythme cardiaque” value is 4-5 secondes.

As to `Cc1nccn1CC1CCc2c(c3ccccc3n2C)C1=O` (stereo not shown) [ondansetron], the “prevention of the agonist-induced fall of rythme cardiaque” value is given as “complétement empêché”.

On to `NCCc1c[nH]c2ccc(O)cc12` [sérotonine], for which the “duration of the transient fall of rythme cardiaque” value was 4-5 secondes.

As for `COc1cc(N)c(Cl)cc1C(=O)NC1CN2CCC1CC2` (stereo not shown) [zacopride], the “prevention of the agonist-induced fall of rythme cardiaque” value is listed as “complétement empêché”.

The values above are taken from patent EP0573360A1, “Pyrrolothienopyrazine compounds as 5-HT3 receptors antagonists” (ADIR ET COMPAGNIE, priority 1992, dated 1993).
